Source: patent US10947252B2, “Inhibitors of KEAP1-Nrf2 protein-protein interaction” (Janssen Pharmaceutica NV, priority 2018, dated 2021)

What was measured:
[1] = molecular target: Kelch domain of human KEAP1 (321-624 aa) (Homo sapiens (Human), UniProt Q14145); assay: KEAP1 KELCH ThermoFluor binding assay; settings: KEAP Kelch […], 1,8-ANS, pH 7.0, average of results obtained, read-out: Tf Kd;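 further: Ligand-induced melting temperature shift of E. coli-expressed KEAP1 Kelch protein, Kd estimated from concentration-response curves of ΔTm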
[2] = test system: Glo-Response ARE-luc2P HEK293 cell line; assay: ARE luciferase reporter cell-based assay; settings: average of results obtained;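 further: luciferase signal tracks Nrf2 activation of the ARE once compounds disrupt KEAP1-Nrf2 binding, read with One-Glo reagent, DMSO serving as low control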

Sequence of Kelch domain of human KEAP1 (321-624 aa) (Q14145 321-624): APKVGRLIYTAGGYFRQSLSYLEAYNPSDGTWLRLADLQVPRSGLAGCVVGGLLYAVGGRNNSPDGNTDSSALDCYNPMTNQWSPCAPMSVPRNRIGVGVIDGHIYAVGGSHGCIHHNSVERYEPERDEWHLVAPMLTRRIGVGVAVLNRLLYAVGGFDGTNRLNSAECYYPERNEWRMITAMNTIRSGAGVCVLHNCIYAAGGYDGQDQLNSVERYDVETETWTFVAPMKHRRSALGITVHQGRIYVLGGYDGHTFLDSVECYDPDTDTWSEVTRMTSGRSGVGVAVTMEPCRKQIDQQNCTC

SMILES | Kd [1] [nM] | EC50 ([2]; Homo sapiens, HEK293, 24 h) [nM] | EC50 ([2]; 24 hours) [nM]
Cc1cnc([C@@H](c2ccn3c(C(F)F)nnc3c2C)C(C)(C)C(=O)O)cc1CN1CC2(CC2)Oc2nc(OCCN3CCCCC3)c(C)cc2S1(=O)=O (single isomer, unassigned) [Example 638, (*S)-3-(3-(Difluoromethyl)-8-methyl-[1,2,4]triazolo[4,3-a]pyridin-7-yl)-2,2-dimethyl-3-(5-methyl-4-((8′-methyl-1′,1′-dioxido-7′-(2-(piperidin-1-yl)ethoxy)spiro[cyclopropane-1,4′-pyrido[2,3-b][1,4,5]oxathiazepin]-2′(3′H)-yl)methyl)pyridin-2-yl)propanoic Acid] | < 1 | 20.1 | –
Cc1ccc([C@@H](c2ccn3c(C(F)(F)F)nnc3c2C)C(C)(C)C(=O)O)cc1CN1CC2(CC2)Oc2nc(OCCN3CCCCC3)ccc2S1(=O)=O (single isomer, unassigned) [Example 371, (*S)-3-(3-1′,1′-Dioxido-7′-(2-(piperidin-1-yl)ethoxy)spiro[cyclopropane-1,4′-pyrido[2,3-b][1,4,5]oxathiazepin]-2′(3′H)-yl)methyl)-4-methylphenyl)-2,2-dimethyl-3-(8-methyl-3-(trifluoromethyl)-[1,2,4]triazolo[4,3-a][pyridine-7-yl)propanoic Acid] | < 1 | 6 | –
Cc1ccc([C@@H](CC(=O)O)c2ccn3c(C(F)(F)F)nnc3c2C)cc1CN1C[C@H]2CCCN2c2ncccc2S1(=O)=O (single isomer, unassigned) [Example 390, (*R)-3-(3-(((R)-5,5-Dioxido-7a,8,9,10-tetrahydropyrido[2,3-f]pyrrolo[2,1-d][1,2,5]thiadiazepin-6(7H)-yl)methyl)-4-methylphenyl)-3-(8-methyl-3-(trifluoromethyl)-[1,2,4]triazolo[4,3-a]pyridin-7-yl)propanoic Acid] | < 1 | 90.9 | –
Cc1ncc([C@H](c2ccn3c(C(F)(F)F)nnc3c2C)C(C)(C)C(=O)O)cc1CN1C[C@@H]2CCCCN2c2ncc(C#N)cc2S1(=O)=O (single isomer, unassigned) [Example 657, (*S)-3-(5-(((*S)-3-Cyano-5,5-dioxido-7,7a,8,9,10,11-hexahydro-6H-dipyrido[2,1-d:2′,3′-f][1,2,5]thiadiazepin-6-yl)methyl)-6-methylpyridin-3-yl)-2,2-dimethyl-3-(8-methyl-3-(trifluoromethyl)-[1,2,4]triazolo[4,3-a]pyridin-7-yl)propanoic Acid] | < 1 | 75 | –
Cc1ccc([C@H](CC(=O)O)c2ccn3c(C(F)(F)F)nnc3c2C)cc1CN1C[C@@H]2CCN2c2ncccc2S1(=O)=O (single isomer, unassigned) [Example 292, (*S)-3-(3-(((*S)-5,5-Dioxido-7,7a,8,9-tetrahydro-6H-azeto[2,1-d]pyrido[2,3-f][1,2,5]thiadiazepin-6-yl)methyl)-4-methylphenyl)-3-(8-methyl-3-(trifluoromethyl)-[1,2,4]triazolo[4,3-a]pyridin-7-yl)propanoic Acid] | < 1 | 68.3 | –
Cc1ccc([C@@H](CC(=O)O)c2ccc3c(nnn3CC3CC3)c2C(F)F)cc1CN1C[C@H]2CCCCN2c2ncccc2S1(=O)=O (single isomer, unassigned) [Example 171, (*R)-3-(1-(Cyclopropylmethyl)-4-(difluoromethyl)-1H-benzo[d][1,2,3]triazol-5-yl)-3-(3-(((*R)-5,5-dioxido-7,7a,8,9,10,11-hexahydro-6H-dipyrido[2,1-d:2′,3′-f][1,2,5]thiadiazepin-6-yl)methyl)-4-methylphenyl)propanoic Acid] | < 1 | – | 88
Cc1ccc([C@H](c2ccn3c(C(F)(F)F)nnc3c2C)C(C)(C)C(=O)O)cc1CN1CC2(CCOCC2)Oc2nc(N[C@@H](C)CN3CCOCC3)c(C)cc2S1(=O)=O (single isomer, unassigned) [Example 363, (*R)-2,2-Dimethyl-3-(4-methyl-3-((8′-methyl-7′-(((S-1-morpholinopropan-2-yl)amino)-1′,1′-dioxido-2,3,5,6-tetrahydrospiro[pyran-4,4′-pyrido[2,3-b][1,4,5]oxathiazepin]-2′(3′H)-yl)methyl)phenyl)-3-(8-methyl-3-(trifluoromethyl)-[1,2,4]triazolo[4,3-a]pyridine-7-yl)propanoic Acid] | < 1 | 12.9 | –
Cc1ccc(C(CC(=O)O)c2ccn3c(C(F)(F)F)nnc3c2C)cc1CN1CC2(COC2)Oc2ccccc2S1(=O)=O (stereo not drawn) [Example 287, 3-(3-((1,1-Dioxidospiro[benzo[b][1,4,5]oxathiazepine-4,3′-oxetan]-2(3H)-yl)methyl)-4-methylphenyl)-3-(8-methyl-3-(trifluoromethyl)-[1,2,4]triazolo[4,3-a]pyridin-7-yl)propanoic Acid] | < 1 | 28.1 | –
CCn1nnc2c(C)c([C@H](CC(=O)O)c3ccc(C)c(CN4CC5(COC5)Oc5ccccc5S4(=O)=O)n3)ccc21 (single isomer, unassigned) [Example 238, (*S)-3-(6-((1,1-Dioxidospiro[benzo[b][1,4,5]oxathiazepine-4,3′-oxetan]-2(3H)-yl)methyl)-5-methylpyridin-2-yl)-3-(1-ethyl-4-methyl-1H-benzo[d][1,2,3]triazol-5-yl)propanoic Acid] | < 1 | 9.7 | –
Cc1cc2c(nc1OCCN1CCCC1)OC1(CC1)CN(Cc1cc([C@H](c3ccc4c(nnn4C4CC4)c3C)C(C)(C)C(=O)O)cnc1C)S2(=O)=O (single isomer, unassigned) [Example 628, (*S)-3-(1-Cyclopropyl-4-methyl-1H-benzo[d][1,2,3]triazol-5-yl)-2,2-dimethyl-3-(6-methyl-5-((8′-methyl-1′,1′-dioxido-7′-(2-(pyrrolidine-1-yl)ethoxy)spiro[cyclopropane-1,4′-pyrido[2,3-b][1,4,5]]oxathiazepin]-2′(3′H)-yl)methyl)pyridine-3-yl)propanoic Acid] | 15400 | > 20000 | –
CCn1nnc2c(C)c([C@H](c3ccc(C)c(CN4CC5(CCOCC5)Oc5ncc(C)cc5S4(=O)=O)n3)C(C)(C)C(=O)O)ccc21 (single isomer, unassigned) [Example 557, (*S)-3-(1-Ethyl-4-methyl-1H-benzo[d][1,2,3]triazol-5-yl)-2,2-dimethyl-3-(5-methyl-6-((8′-methyl-1′,1′-dioxido-2,3,5,6-tetrahydrospiro[pyran-4,4′-pyrido[2,3-b][1,4,5]oxathiazepin]-2′(3′H)-yl)methyl)pyridin-2-yl)propanoic Acid] | < 1 | 0.56 | –
Cc1ccc([C@H](c2ccn3c(C(F)(F)F)nnc3c2C)C(C)(C)C(=O)O)cc1CN1CC2(CCOCC2)Oc2nc(N[C@H](C)CN3CCCCC3)c(C)cc2S1(=O)=O (single isomer, unassigned) [Example 603, (*R)-2,2-Dimethyl-3-(4-methyl-3-((8′-methyl-1′,1′-dioxido-7′-(((*R)-1-(piperidin-1-yl)propan-2-yl)amino)-2,3,5,6-tetrahydrospiro[pyran-4,4′-pyrido[2,3-b][1,4,5]oxathiazepin]-2′(3′H)-yl)methyl)phenyl)-3-(8-methyl-3-(trifluoromethyl)-[1,2,4]triazolo[4,3-a]pyridine-7-yl)propanoic Acid] | < 1 | 55 | –
